For data set [1] the following is noted: background statement; cited from earlier work.
A short description of data set [2]: Generation of Compound 2 on sealed non-contact storage of faropenem daloxate with hard gelatin capsule (HPLC peak area ratio). The class given is physicochemical. The source says:
(drifting moisture) for 7 days, and observed for the change. 1, generation quantity of Compound 2 has increased and hard gelatin capsule has insolubilized after 3 days of preservation. From the result, it is confirmed that insolubilization of hard gelatin capsule is caused by low molecular, gaseous aldehyde-like substance generated from degradation of faropenem daloxate.
FIG. 2 is showing the testing condition of observation for change while faropenem daloxate is kept with hard gelatin capsule without any contact with the capsule in sealed glass container at 60° C. (drifting moisture) for 7 days.

On to `Cc1oc(=O)oc1COC(=O)C1=C([C@H]2CCCO2)S[C@@H]2[C@@H]([C@@H](C)O)C(=O)N12` [faropenem daloxate, (5-methyl-2-oxo-1,3-dioxolene-4-yl)methyl (5R,6S)-6-[(R)-1-hydroxyethyl]-7-oxo-3-[(R)-2-tetrahydrofuryl]-4-thia-1-azabicyclo[3.2.0]hept-2-ene-2-carboxylate], for which, in data set [1], the oral absorbability is reported as ≥ 70%. The entries for the “Generation quantity of Compound 2 (%)” value in data set [2] (60° C./drifting humidity/3 days), in data set [2] (60° C./drifting humidity/5 days) and in data set [2] (60° C./drifting humidity/7 days) were 0.02%, 0.04% and 0.07%, respectively.

Values taken from patent US20050169984A1, “Pharmaceutical hard capsule containing inorganic substance” (DAIICHI SUNTORY PHARMA CO., LTD., priority 2004, published 2005).
